From patent US7632933B2, “Corticotropin releasing factor 2 receptor agonists” (priority 2002, dated 2009) come the findings set out here.

pEC50: −log10 of the molar value. Ends that are not written are not given here. Peptide text beside a SMILES is read from it.

In experiment [1] the target is T1, CRF1R (Homo sapiens, UniProt P34998).
T1 sequence (P34998 24-415): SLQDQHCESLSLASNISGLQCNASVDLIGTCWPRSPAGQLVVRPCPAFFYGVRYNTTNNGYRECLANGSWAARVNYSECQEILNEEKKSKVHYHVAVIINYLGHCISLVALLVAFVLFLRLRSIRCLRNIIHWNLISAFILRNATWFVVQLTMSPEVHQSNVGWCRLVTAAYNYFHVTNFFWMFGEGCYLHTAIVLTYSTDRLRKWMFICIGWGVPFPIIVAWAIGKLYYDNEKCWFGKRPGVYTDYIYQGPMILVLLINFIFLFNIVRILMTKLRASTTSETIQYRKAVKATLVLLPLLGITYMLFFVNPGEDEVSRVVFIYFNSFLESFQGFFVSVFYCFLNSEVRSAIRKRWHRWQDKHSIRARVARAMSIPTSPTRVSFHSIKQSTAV
Put plainly: CRF1R agonist activity (EC50 and Emax), called comparative CRF binding. It counts as cell-based. To be noted: CRF1R; read-out: CRF1R EC50. From the text: (§1) The pharmacological activity and selectivity of the peptides of present invention can be determined using published test procedures. See, e.g, U.S. patent application Ser. No. 09/799,978. Because CRF2R and CRF1R are homologous proteins, it is expected that a certain proportion of agonists for CRF2R will also function as agonists of CRF1R. As discussed above, activation of CRF1R induces activation of the HPA axis since increased corticosteroid production leads to skeletal muscle atrophy. In most cases in which an increase in muscle mass or function is desired, it is not desirable to activate the HPA axis.
(§2) Because it is desirable to discriminate binding between CRF2R, as compared with CRF1R, the assays described above may be conducted using a cell, or membrane from a cell, which expresses only CRF2R or the assays can be conducted with a recombinant source of CRF2R. Cells expressing both forms of CRFR may be modified using homologous recombination to inactivate or otherwise disable the CRF1R gene. Alternatively, if the source of CRFR contains more than one CRFR type, the background signal produced by the receptor which is not of interest must be subtracted from the signal obtained in the assay. […] Known antagonists of CRFRs include, but are not limited to, antalarmin (CRF1R selective), antisauvagine-30 (CRF2R selective) and astressin (nonselective for CRF1R/CRF2R).
(§3) Cell-based assays include the steps of contacting cells which express CRF1R or CRF2R with a peptide of the present invention or control and measuring activation of the CRFR by measuring the expression or activity of components of the CRFR signal transduction pathways.
(§4) For example, after contact with a peptide of the present invention, lysates of the cells can be prepared and assayed for induction of cAMP. cAMP is induced in response to Gαs activation. Because Gαs is activated by receptors other than CRFR and because a test peptide may be exerting its effect through CRFRs or by another mechanism, two control comparisons are relevant for determining whether the peptide increases levels of cAMP via activation of a CRFR. One control compares the cAMP level of cells contacted with the peptide and the cAMP level of cells contacted with a control compound (i.e., the vehicle in which the peptide is dissolved).
(§5) In one example, cAMP induction is measured with the use of DNA constructs containing the cAMP responsive element linked to any of a variety of reporter genes can be introduced into cells expressing CRFRs. Such reporter genes include, but are not limited to, chloramphenicol acetyltransferase (CAT), luciferase, glucuronide synthetase, growth hormone, fluorescent proteins (e.g., Green Fluorescent Protein), or alkaline phosphatase. Following exposure of the cells to the peptide, the level of reporter gene expression can be quantitated to determine the peptide's ability to increase cAMP levels and thus determine the peptide's ability to activate the CRFR.
(§6) In addition to using cells expressing full length CRFRs, cells can be engineered which express CRFRs containing the ligand binding domain of the receptor coupled to, or physically modified to contain, reporter elements or to interact with signaling proteins. For example, a wild type CRFR or CRFR fragment can be fused to a G-protein resulting in activation of the fused G-protein upon agonist binding to the CRFR portion of the fusion protein. […] In addition, alternative pathways for induction of the CRE reporter could be eliminated to reduce basal levels.

The target in experiment [2] is T2, CRF2R (Homo sapiens, UniProt Q13324).
T2 sequence (Q13324 1-411): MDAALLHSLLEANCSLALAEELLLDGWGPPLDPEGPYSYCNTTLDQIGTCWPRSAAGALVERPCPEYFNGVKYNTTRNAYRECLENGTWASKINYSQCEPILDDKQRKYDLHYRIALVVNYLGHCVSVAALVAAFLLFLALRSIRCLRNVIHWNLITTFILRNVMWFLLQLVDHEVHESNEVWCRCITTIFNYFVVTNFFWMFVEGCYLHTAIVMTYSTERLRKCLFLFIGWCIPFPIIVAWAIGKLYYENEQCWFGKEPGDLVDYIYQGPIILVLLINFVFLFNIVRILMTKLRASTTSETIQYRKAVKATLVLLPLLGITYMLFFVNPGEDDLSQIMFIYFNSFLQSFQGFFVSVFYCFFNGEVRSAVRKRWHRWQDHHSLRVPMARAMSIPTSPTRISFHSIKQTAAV
Briefly: CRF2R agonist activity (EC50 and Emax), called comparative CRF binding. The class given is cell-based. Conditions: CRF2R; read-out: CRF2R EC50.
Text: as §1, §2, §3, §4, §5, §6

Regarding `CC[C@H](C)[C@H](N)C(=O)N[C@H](C(=O)N[C@@H](CC(C)C)C(=O)N[C@@H](CO)C(=O)N[C@@H](CC(C)C)C(=O)N[C@@H](CC(=O)O)C(=O)N[C@H](C(=O)N1CCC[C@H]1C(=O)NCC(=O)N1CCC[C@H]1C(=O)N[C@@H](CC(C)C)C(=O)N[C@@H](CC(C)C)C(=O)N[C@@H](CCC(N)=O)C(=O)N[C@H](C(=O)N[C@@H](CC(C)C)C(=O)N[C@@H](CC(C)C)C(=O)N[C@@H](CCC(=O)O)C(=O)N[C@@H](CCC(N)=O)C(=O)N[C@H](C(=O)N[C@@H](CCCCN)C(=O)N[C@@H](CCC(N)=O)C(=O)N[C@@H](CCC(=O)O)C(=O)N[C@@H](C)C(=O)N[C@@H](C)C(=O)N[C@@H](CCCNC(=N)N)C(=O)N[C@@H](CCC(=O)O)C(=O)N[C@@H](CCC(N)=O)C(=O)N[C@@H](C)C(=O)N[C@H](C(=O)N[C@H](C(=O)N[C@@H](CC(N)=O)C(=O)N[C@@H](C)C(=O)N[C@@H](CCCNC(=N)N)C(=O)N[C@H](C(=O)N[C@@H](CC(C)C)C(=O)N[C@@H](C)C(=O)N[C@@H](CCCNC(=N)N)C(=O)N[C@H](C(N)=O)C(C)C)[C@@H](C)CC)[C@@H](C)O)[C@@H](C)O)[C@@H](C)O)[C@@H](C)CC)C(C)C)C(C)C` [compound 5] (H-IVLSLDVPGPLLQILLEQTKQEAAREQATTNARILARV-NH2), the pEC50 in experiment [1] and in experiment [2] was at most 7.00 throughout.

Take `CC[C@H](C)[C@H](N)C(=O)N[C@H](C(=O)N[C@@H](CC(C)C)C(=O)N[C@@H](CO)C(=O)N[C@@H](CC(C)C)C(=O)N[C@@H](CC(=O)O)C(=O)N[C@H](C(=O)N1CCC[C@H]1C(=O)N[C@H](C(=O)NCC(=O)N[C@@H](CC(C)C)C(=O)N[C@@H](CC(C)C)C(=O)N[C@@H](CCC(N)=O)C(=O)N[C@H](C(=O)N[C@@H](CC(C)C)C(=O)N[C@@H](CC(C)C)C(=O)N[C@@H](CCC(=O)O)C(=O)N[C@@H](CCC(N)=O)C(=O)N[C@@H](C)C(=O)N[C@@H](CCCNC(=N)N)C(=O)N[C@@H](C)C(=O)N[C@@H](CCCNC(=N)N)C(=O)N[C@@H](C)C(=O)N[C@@H](C)C(=O)N[C@@H](CCCNC(=N)N)C(=O)N[C@@H](CCC(=O)O)C(=O)N[C@@H](CCC(N)=O)C(=O)N[C@@H](C)C(=O)N[C@H](C(=O)N[C@H](C(=O)N[C@@H](CCC(N)=O)C(=O)N[C@@H](C)C(=O)N[C@@H](CCCNC(=N)N)C(=O)N[C@H](C(=O)N[C@@H](CC(C)C)C(=O)N[C@@H](C)C(=O)N[C@@H](CCCNC(=N)N)C(=O)N[C@H](C(N)=O)C(C)C)[C@@H](C)CC)[C@@H](C)O)[C@@H](C)O)[C@@H](C)CC)[C@@H](C)CC)C(C)C)C(C)C` [compound 9] (H-IVLSLDVPIGLLQILLEQARARAAREQATTQARILARV-NH2): the pEC50 in experiment [1] and in experiment [2] was at most 7.00 in each case.

In the case of `CC[C@H](C)[C@H](NC(=O)[C@H](CC(=O)O)NC(=O)[C@H](CC(C)C)NC(=O)[C@H](CC(C)C)NC(=O)[C@H](CCCCN)NC(=O)[C@H](CCCNC(=N)N)NC(=O)[C@H](CC(N)=O)NC(=O)[C@H](CO)NC(=O)[C@H](Cc1c[nH]cn1)NC(=O)[C@H](C)NC(=O)[C@H](CCC(N)=O)NC(=O)[C@H](CCC(N)=O)NC(=O)[C@H](C)NC(=O)[C@H](CC(C)C)NC(=O)[C@H](CCC(N)=O)NC(=O)[C@H](CC(=O)O)NC(=O)[C@H](C)NC(=O)[C@H](CCCCN)NC(=O)[C@@H](NC(=O)[C@H](CCSC)NC(=O)[C@H](CCC(=O)O)NC(=O)[C@H](CC(C)C)NC(=O)[C@@H](NC(=O)[C@H](CCC(=O)O)NC(=O)[C@H](CCCNC(=N)N)NC(=O)[C@H](CC(C)C)NC(=O)[C@H](CC(C)C)NC(=O)[C@H](Cc1c[nH]cn1)NC(=O)[C@H](Cc1ccccc1)NC(=O)[C@@H]1CCCN1C(=O)[C@H](CC(C)C)NC(=O)[C@H](CC(=O)O)NC(=O)[C@H](CC(C)C)NC(=O)[C@H](CO)NC(=O)[C@@H](NC(=O)[C@@H]1CCCN1C(=O)[C@@H]1CCCN1C(=O)[C@H](CCC(=O)O)NC(=O)[C@H](CCC(N)=O)NC(=O)[C@@H](N)CO)[C@@H](C)CC)C(C)C)[C@@H](C)O)C(=O)N[C@@H](C)C(N)=O` [compound 104], the pEC50 in experiment [1] and in experiment [2] was at most 7.00 in each case.

For `CC[C@H](C)[C@H](N)C(=O)N[C@H](C(=O)N[C@@H](CC(C)C)C(=O)N[C@@H](CO)C(=O)N[C@@H](CC(C)C)C(=O)N[C@@H](CC(=O)O)C(=O)N[C@H](C(=O)N1CCC[C@H]1C(=O)N[C@H](C(=O)NCC(=O)N[C@@H](CC(C)C)C(=O)N[C@@H](CC(C)C)C(=O)N[C@@H](CCC(N)=O)C(=O)N[C@H](C(=O)N[C@@H](CC(C)C)C(=O)N[C@@H](CC(C)C)C(=O)N[C@@H](CCC(=O)O)C(=O)N[C@@H](CCC(N)=O)C(=O)N[C@@H](C)C(=O)N[C@@H](CCCCN)C(=O)N[C@@H](C)C(=O)N[C@@H](CCCNC(=N)N)C(=O)N[C@@H](C)C(=O)N[C@@H](C)C(=O)N[C@@H](CCCNC(=N)N)C(=O)N[C@@H](CCC(=O)O)C(=O)N[C@@H](CCC(N)=O)C(=O)N[C@@H](C)C(=O)N[C@H](C(=O)N[C@H](C(=O)N[C@@H](CC(N)=O)C(=O)N[C@@H](C)C(=O)N[C@@H](CCCNC(=N)N)C(=O)N[C@H](C(=O)N[C@@H](CC(C)C)C(=O)N[C@@H](C)C(=O)N[C@@H](CCCNC(=N)N)C(=O)N[C@H](C(N)=O)C(C)C)[C@@H](C)CC)[C@@H](C)O)[C@@H](C)O)[C@@H](C)CC)[C@@H](C)CC)C(C)C)C(C)C` [compound 109] (H-IVLSLDVPIGLLQILLEQAKARAAREQATTNARILARV-NH2; N-terminus assumed), the pEC50 in experiment [2] was 7.93.

Consider `CC[C@H](C)[C@H](N)C(=O)N[C@H](C(=O)N[C@@H](CC(C)C)C(=O)N[C@@H](CO)C(=O)N[C@@H](CC(C)C)C(=O)N[C@@H](CC(=O)O)C(=O)N[C@H](C(=O)N1CCC[C@H]1C(=O)N[C@H](C(=O)NCC(=O)N[C@@H](CC(C)C)C(=O)N[C@@H](CC(C)C)C(=O)N[C@@H](CCC(N)=O)C(=O)N[C@H](C(=O)N[C@@H](CC(C)C)C(=O)N[C@@H](CC(C)C)C(=O)N[C@@H](CCC(=O)O)C(=O)N[C@@H](CCC(N)=O)C(=O)N[C@H](C(=O)N[C@@H](CCCCN)C(=O)N[C@@H](C)C(=O)N[C@@H](CCCNC(=N)N)C(=O)N[C@@H](C)C(=O)N[C@@H](C)C(=O)N[C@@H](CCCNC(=N)N)C(=O)N[C@@H](CCC(=O)O)C(=O)N[C@@H](CCC(N)=O)C(=O)N[C@@H](C)C(=O)N[C@H](C(=O)N[C@H](C(=O)N[C@@H](CC(N)=O)C(=O)N[C@@H](C)C(=O)N[C@@H](CCCNC(=N)N)C(=O)N[C@H](C(=O)N[C@@H](CC(C)C)C(=O)N[C@@H](C)C(=O)N[C@@H](CCCNC(=N)N)C(=O)N[C@H](C(N)=O)C(C)C)[C@@H](C)CC)[C@@H](C)O)[C@@H](C)O)[C@@H](C)O)[C@@H](C)CC)[C@@H](C)CC)C(C)C)C(C)C` [compound 117] (H-IVLSLDVPIGLLQILLEQTKARAAREQATTNARILARV-NH2; N-terminus assumed), for which, in experiment [2], the negative-log EC50 (pEC50) was 8.03.

Consider “SQEPPISLDLPLELLREVLEMTKADQLAQQAHSNRKLLDIA-NH2 [compound 89]”, for which the pEC50 in experiment [2] was at most 7.00.

A word on the pEC50: it is the negative decadic logarithm of the EC50, by convention in mol/L.
